Common to all, as to format: functional, organism-based
In one assay the test system is Bacillus subtilis. The assay is described as follows: Antimicrobial activity against Bacillus subtilis RSC1 at <12.5 ug/disk after 24 hrs.
The next assay concerns Phytophthora cinnamomi. As to the kind of experiment: Antimicrobial activity against Phytophthora cinnamomi RSC290 at 6.25 ug/disk after 18 to 24 hrs.
The next assay relates to Escherichia coli. As to the kind of experiment: Antimicrobial activity against Escherichia coli RSC2 at 6.25 ug/disk after 18 to 24 hrs.

Molecules are shown by their SMILES. The source made the active and inactive calls. The calls are words filed in the database; no cut-off is given here.

With `C=C(C(=O)OC[C@H]1O[C@@H](Oc2ccc(O)cc2)[C@H](O)[C@@H](O)[C@@H]1O)[C@@H](O)CO`, the outcome in the assay on Bacillus subtilis was inactive. The result in the assay with Phytophthora cinnamomi and in the assay with Escherichia coli was Active.

These data come from ChEMBL document CHEMBL1146416, “A new glycoside antimicrobial agent from Persoonia linearis x pinifolia” (J Nat Prod, 1997).
